# Data: PubChem BioAssay (NCI)
#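 Each compound was tested at five concentrations against cells in 96-well plates for 48 hours. At the TGI there is no net growth.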
# Legend:
# Assay in all cases: DTP human tumour cell line panel, 48 h
# NCI-H460 lung = system: NCI-H460 lung
# SN12C renal = system: SN12C renal
# HOP-62 NSCLC = system: HOP-62 NSCLC
# LOX IMVI melanoma = system: LOX IMVI melanoma
# SF-268 CNS = system: SF-268 CNS
# OVCAR-3 ovarian = system: OVCAR-3 ovarian
# T-47D breast = system: T-47D breast
# UO-31 renal = system: UO-31 renal
# M14 melanoma = system: M14 melanoma
# SW-620 colon = system: SW-620 colon
# RXF 393 renal = system: RXF 393 renal
# A549 NSCLC = system: A549 NSCLC
# HT29 colon = system: HT29 colon
# MDA-MB-435 = system: MDA-MB-435
# SNB-19 CNS = system: SNB-19 CNS
# MDA-MB-231 breast = system: MDA-MB-231 breast
# OVCAR-5 ovarian = system: OVCAR-5 ovarian
# KM12 colon = system: KM12 colon
# RPMI-8226 leukemia = system: RPMI-8226 leukemia
# SF-295 CNS = system: SF-295 CNS
# NCI-H522 lung = system: NCI-H522 lung
# DU-145 prostate = system: DU-145 prostate
# NCI/ADR-RES ovarian = system: NCI/ADR-RES ovarian
# EKVX NSCLC = system: EKVX NSCLC
# TK-10 renal = system: TK-10 renal
# 786-0 renal = system: 786-0 renal
# CAKI-1 renal = system: CAKI-1 renal
# MOLT-4 leukemia = system: MOLT-4 leukemia
# NCI-H226 lung = system: NCI-H226 lung
# A498 renal = system: A498 renal
# SK-MEL-2 melanoma = system: SK-MEL-2 melanoma
# SR leukemia = system: SR leukemia
# IGROV1 ovarian = system: IGROV1 ovarian
# HL-60(TB) leukemia = system: HL-60(TB) leukemia
# U251 CNS = system: U251 CNS
# SK-MEL-28 melanoma = system: SK-MEL-28 melanoma
# CCRF-CEM leukemia = system: CCRF-CEM leukemia
# OVCAR-4 ovarian = system: OVCAR-4 ovarian
# HCC-2998 colon = system: HCC-2998 colon
# SK-OV-3 ovarian = system: SK-OV-3 ovarian
# HOP-92 NSCLC = system: HOP-92 NSCLC
# MCF7 breast = system: MCF7 breast
# SF-539 CNS = system: SF-539 CNS
# K-562 leukemia = system: K-562 leukemia
# HCT-15 colon = system: HCT-15 colon
# HS 578T breast = system: HS 578T breast
# UACC-62 melanoma = system: UACC-62 melanoma
# MALME-3M melanoma = system: MALME-3M melanoma
# HCT-116 colon = system: HCT-116 colon
# SK-MEL-5 melanoma = system: SK-MEL-5 melanoma
# MDA-N = system: MDA-N
# PC-3 prostate = system: PC-3 prostate
# COLO 205 colon = system: COLO 205 colon
# OVCAR-8 ovarian = system: OVCAR-8 ovarian
# NCI-H23 lung = system: NCI-H23 lung
# ACHN renal = system: ACHN renal
# UACC-257 melanoma = system: UACC-257 melanoma
# SNB-75 CNS = system: SNB-75 CNS
# BT-549 breast = system: BT-549 breast
compound,measurement,setting,value
O/N=C1\CSc2ccccc2C1,TGI,NCI-H460 lung,> 100 µM
same,TGI,SN12C renal,> 100 µM
same,TGI,HOP-62 NSCLC,> 100 µM
same,TGI,LOX IMVI melanoma,> 100 µM
same,TGI,SF-268 CNS,> 100 µM
same,TGI,OVCAR-3 ovarian,> 100 µM
same,TGI,T-47D breast,> 100 µM
same,TGI,UO-31 renal,> 100 µM
same,TGI,M14 melanoma,> 100 µM
same,TGI,SW-620 colon,> 100 µM
same,TGI,RXF 393 renal,> 100 µM
same,TGI,A549 NSCLC,> 100 µM
same,TGI,HT29 colon,> 100 µM
same,TGI,MDA-MB-435,> 100 µM
same,TGI,SNB-19 CNS,> 100 µM
same,TGI,MDA-MB-231 breast,> 100 µM
same,TGI,OVCAR-5 ovarian,> 100 µM
same,TGI,KM12 colon,> 100 µM
same,TGI,RPMI-8226 leukemia,> 100 µM
same,TGI,SF-295 CNS,> 100 µM
same,TGI,NCI-H522 lung,> 100 µM
same,TGI,DU-145 prostate,> 100 µM
same,TGI,NCI/ADR-RES ovarian,> 100 µM
same,TGI,EKVX NSCLC,94.5 µM
same,TGI,TK-10 renal,> 100 µM
same,TGI,786-0 renal,> 100 µM
same,TGI,CAKI-1 renal,> 100 µM
same,TGI,MOLT-4 leukemia,> 100 µM
same,TGI,NCI-H226 lung,> 100 µM
same,TGI,A498 renal,> 100 µM
same,TGI,SK-MEL-2 melanoma,> 100 µM
same,TGI,SR leukemia,> 100 µM
same,TGI,IGROV1 ovarian,> 100 µM
same,TGI,HL-60(TB) leukemia,> 100 µM
same,TGI,U251 CNS,> 100 µM
same,TGI,SK-MEL-28 melanoma,> 100 µM
same,TGI,CCRF-CEM leukemia,> 100 µM
same,TGI,OVCAR-4 ovarian,> 100 µM
same,TGI,HCC-2998 colon,> 100 µM
same,TGI,SK-OV-3 ovarian,> 100 µM
same,TGI,HOP-92 NSCLC,> 100 µM
same,TGI,MCF7 breast,> 100 µM
same,TGI,SF-539 CNS,> 100 µM
same,TGI,K-562 leukemia,> 100 µM
same,TGI,HCT-15 colon,> 100 µM
same,TGI,HS 578T breast,> 100 µM
same,TGI,UACC-62 melanoma,> 100 µM
same,TGI,MALME-3M melanoma,> 100 µM
same,TGI,HCT-116 colon,> 100 µM
same,TGI,SK-MEL-5 melanoma,> 100 µM
same,TGI,MDA-N,> 100 µM
same,TGI,PC-3 prostate,> 100 µM
same,TGI,COLO 205 colon,> 100 µM
same,TGI,OVCAR-8 ovarian,> 100 µM
same,TGI,NCI-H23 lung,> 100 µM
same,TGI,ACHN renal,> 100 µM
same,TGI,UACC-257 melanoma,> 100 µM
C=CC(C)(O)CCC1C(=C)C(O)CC2C(C)(C)CCCC12C (stereo not given),TGI,NCI-H460 lung,33.5 µM
same,TGI,SN12C renal,33 µM
same,TGI,HOP-62 NSCLC,43.6 µM
same,TGI,LOX IMVI melanoma,38.7 µM
same,TGI,SF-268 CNS,38 µM
same,TGI,SNB-75 CNS,> 100 µM
same,TGI,OVCAR-3 ovarian,39.9 µM
same,TGI,T-47D breast,93.6 µM
same,TGI,UO-31 renal,28.5 µM
same,TGI,M14 melanoma,30 µM
same,TGI,SW-620 colon,43.5 µM
same,TGI,RXF 393 renal,29.5 µM
same,TGI,A549 NSCLC,54.9 µM
same,TGI,HT29 colon,33 µM
same,TGI,MDA-MB-435,41.8 µM
same,TGI,SNB-19 CNS,35.6 µM
same,TGI,MDA-MB-231 breast,31.8 µM
same,TGI,OVCAR-5 ovarian,41.7 µM
same,TGI,KM12 colon,52.1 µM
same,TGI,RPMI-8226 leukemia,58.2 µM
same,TGI,SF-295 CNS,48 µM
same,TGI,NCI-H522 lung,34.1 µM
same,TGI,DU-145 prostate,37.2 µM
same,TGI,NCI/ADR-RES ovarian,41.1 µM
same,TGI,EKVX NSCLC,36.8 µM
same,TGI,TK-10 renal,47.5 µM
same,TGI,786-0 renal,32.8 µM
same,TGI,CAKI-1 renal,68.2 µM
same,TGI,MOLT-4 leukemia,31.2 µM
same,TGI,NCI-H226 lung,29.2 µM
same,TGI,A498 renal,33.3 µM
same,TGI,SK-MEL-2 melanoma,31.1 µM
same,TGI,IGROV1 ovarian,52.2 µM
same,TGI,HL-60(TB) leukemia,35.9 µM
same,TGI,U251 CNS,28.8 µM
same,TGI,SK-MEL-28 melanoma,36.8 µM
same,TGI,CCRF-CEM leukemia,45.4 µM
same,TGI,OVCAR-4 ovarian,47.5 µM
same,TGI,HCC-2998 colon,33.2 µM
same,TGI,SK-OV-3 ovarian,> 100 µM
same,TGI,BT-549 breast,32.4 µM
same,TGI,HOP-92 NSCLC,34 µM
same,TGI,MCF7 breast,60 µM
same,TGI,SF-539 CNS,31.7 µM
same,TGI,K-562 leukemia,33.2 µM
same,TGI,HCT-15 colon,33.3 µM
same,TGI,HS 578T breast,50.3 µM
same,TGI,UACC-62 melanoma,29.8 µM
same,TGI,MALME-3M melanoma,34.8 µM
same,TGI,HCT-116 colon,31.8 µM
same,TGI,SK-MEL-5 melanoma,29.5 µM
same,TGI,MDA-N,34.6 µM
same,TGI,PC-3 prostate,32.2 µM
same,TGI,COLO 205 colon,29.4 µM
same,TGI,OVCAR-8 ovarian,71.4 µM
same,TGI,NCI-H23 lung,38.3 µM
same,TGI,ACHN renal,70.4 µM
same,TGI,UACC-257 melanoma,39 µM
